Values of other authors as cited in patent US20220370506A1, “AUGMENTATION OF FIBROBLAST MEDIATED REGENERATION OF INTRAVERTEBRAL DISCS” (FIGENE, LLC, priority 2019, published 2022).

System: patients with chronic lumbosacral radiculopathy or discogenic low back pain
[1] = authors' conclusion, single low dose intradiscal

Substance: etanercept
- pain scores between or within groups (1-month follow-up, 0.1, 0.25, 0.5, 0.75, 1.0, or 1.5 mg intradiscally in each pain-generating disc, any dose range or subgroup): no differences
- disability scores between or within groups (1-month follow-up, 0.1-1.5 mg intradiscally, any dose range or subgroup): no differences
- effectiveness as treatment for chronic radicular or discogenic low back pain [1]: does not seem to be an effective treatment
- serious side effects [1]: no serious side effects were observed
- complications (intradiscal 0.1-1.5 mg, 36 patients): No complications were reported
- preprocedure versus postprocedure leukocyte counts (intradiscal 0.1-1.5 mg, 1-month follow-up): no differences were noted
